US9149475B2, “Protein kinase C inhibitors and uses thereof” (Rigel Pharmaceuticals, Inc., priority 2009, dated 2015)

Tested on: Human primary T cells
Assay: IL-2 ELISA, human primary T cell, anti-CD3+CD28+ (whole cell assay)
Format: cell-based
Details: Homo sapiens, T-cell, 24 h, human primary T cells stimulated with anti-CD3 + anti-CD28, 24 hours
Procedure, shortened: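 PBMC-derived T cells, pre-expanded on αCD3/αCD28 with IL-2 and then washed free of IL-2, were preincubated with compound for 1 hr at 37° C (100,000 cells/well). They were then stimulated on 1 μg/ml αCD3 plus 5 μg/ml αCD28 for 24 h, and supernatant IL-2 was measured by ELISA. The counter-assay used 0.5 ng/ml PMA plus 0.1 μM ionomycin instead.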

| Structure (SMILES) | IC50 [nM] |
| --- | --- |
| CC(C)Oc1ncc(Nc2ncc(C#N)c(NC3CC(C)(C)N(C)C(C)(C)C3)n2)cc1-c1nnnn1C1CC1 [Compound I-139, 2-(5-(1-cyclopropyl-1H-tetrazol-5-yl)-6-isopropoxypyridin-3-ylamino)-4-(1,2,2,6,6-pentamethylpiperidin-4-ylamino)pyrimidine-5-carbonitrile] | < 250 |
| CC(C)Oc1ncc(Nc2ncc(C#N)c(NC3CC(C)(C)NC(C)(C)C3)n2)cc1-c1nnnn1C1CC1 [Compound I-140, 2-(5-(1-cyclopropyl-1H-tetrazol-5-yl)-6-isopropoxypyridin-3-ylamino)-4-(2,2,6,6-tetramethylpiperidin-4-ylamino)pyrimidine-5-carbonitrile] | 250 to 500 |
| CC1(C)CC(Nc2nc(Nc3cnc(OCCN4CCCC4=O)c(OC(F)F)c3)ncc2F)CC(C)(C)N1 [Compound I-141, 1-(2-(3-(difluoromethoxy)-5-(5-fluoro-4-(2,2,6,6-tetramethylpiperidin-4-ylamino)pyrimidin-2-ylamino)pyridin-2-yloxy)ethyl)pyrrolidin-2-one] | > 1000 |
| CN1C(C)(C)CC(Nc2nc(Nc3cnc(OCCN4CCCC4)c(OC(F)F)c3)ncc2F)CC1(C)C [Compound I-142, N2-(5-(difluoromethoxy)-6-(2-(pyrrolidin-1-yl)ethoxy)pyridin-3-yl)-5-fluoro-N4-(1,2,2,6,6-pentamethylpiperidin-4-yl)pyrimidine-2,4-diamine] | > 1000 |
| CC1(C)CC(Nc2nc(Nc3cnc(OCCN4CCCC4)c(OC(F)F)c3)ncc2F)CC(C)(C)N1 [Compound I-143, N2-(5-(difluoromethoxy)-6-(2-(pyrrolidin-1-yl)ethoxy)pyridin-3-yl)-5-fluoro-N4-(2,2,6,6-tetramethylpiperidin-4-yl)pyrimidine-2,4-diamine] | > 1000 |
| CC1(C)CC(Nc2nc(Nc3ccc(OC4CCN(CC(F)(F)F)CC4)c(OC(F)F)c3)ncc2F)CC(C)(C)N1 [Compound I-144, N2-(4-(1-(2,2,2-trifluoroethyl)piperidin-4-yloxy)-3-(difluoromethoxy)phenyl)-5-fluoro-N4-(2,2,6,6-tetramethylpiperidin-4-yl)pyrimidine-2,4-diamine] | 500 to 1000 |
| CN1C(C)(C)CC(Nc2nc(Nc3ccc(OC4CCN(CC(F)(F)F)CC4)c(OC(F)F)c3)ncc2F)CC1(C)C [Compound I-145, N2-(4-(1-(2,2,2-trifluoroethyl)piperidin-4-yloxy)-3-(difluoromethoxy)phenyl)-5-fluoro-N4-(1,2,2,6,6-pentamethylpiperidin-4-yl)pyrimidine-2,4-diamine] | 250 to 500 |
| CC(C)N1CC[C@@H](Oc2ccc(Nc3ncc(F)c(NC4CC(C)(C)NC(C)(C)C4)n3)cc2OC(F)F)C1 [Compound I-146, N2-(4-((R)-1-isopropylpyrrolidin-3-yloxy)-3-(difluoromethoxy)phenyl)-5-fluoro-N4-(2,2,6,6-tetramethylpiperidin-4-yl)pyrimidine-2,4-diamine] | 250 to 500 |
| CC(C)N1CC[C@@H](Oc2ccc(Nc3ncc(F)c(NC4CC(C)(C)N(C)C(C)(C)C4)n3)cc2OC(F)F)C1 [Compound I-147, N2-(4-((R)-1-isopropylpyrrolidin-3-yloxy)-3-(difluoromethoxy)phenyl)-5-fluoro-N4-(1,2,2,6,6-pentamethylpiperidin-4-yl)pyrimidine-2,4-diamine] | < 250 |
| CC(C)N1CC[C@H](Oc2ccc(Nc3ncc(F)c(NC4CC(C)(C)NC(C)(C)C4)n3)cc2OC(F)F)C1 [Compound I-148, N2-(4-((S)-1-isopropylpyrrolidin-3-yloxy)-3-(difluoromethoxy)phenyl)-5-fluoro-N4-(2,2,6,6-tetramethylpiperidin-4-yl)pyrimidine-2,4-diamine] | 250 to 500 |
| CC(C)N1CC[C@H](Oc2ccc(Nc3ncc(F)c(NC4CC(C)(C)N(C)C(C)(C)C4)n3)cc2OC(F)F)C1 [Compound I-149, N2-(4-((S)-1-isopropylpyrrolidin-3-yloxy)-3-(difluoromethoxy)phenyl)-5-fluoro-N4-(1,2,2,6,6-pentamethylpiperidin-4-yl)pyrimidine-2,4-diamine] | < 250 |
| CC(C)N1CCC(Oc2ccc(Nc3ncc(F)c(NC4CC(C)(C)NC(C)(C)C4)n3)cc2C#N)CC1 [Compound I-150, 2-(1-isopropylpiperidin-4-yloxy)-5-(4-(2,2,6,6-tetramethylpiperidin-4-ylamino)-5-fluoropyrimidin-2-ylamino)benzonitrile] | < 250 |
| CC(C)N1CCC(Oc2ccc(Nc3ncc(F)c(NC4CC(C)(C)N(C)C(C)(C)C4)n3)cc2C#N)CC1 [Compound I-151, 2-(1-isopropylpiperidin-4-yloxy)-5-(4-(1,2,2,6,6-pentamethylpiperidin-4-ylamino)-5-fluoropyrimidin-2-ylamino)benzonitrile] | 500 to 1000 |

Continued, values first:

| IC50 [nM] | Structure (SMILES) |
| --- | --- |
| > 1000 | CN1C(C)(C)CC(Nc2nc(Nc3ccc4c(c3)OCC(C(=O)N3CCCCC3)O4)ncc2F)CC1(C)C (stereo not shown) [II-1, (6-(4-(1,2,2,6,6-pentamethylpiperidin-4-ylamino)-5-fluoropyrimidin-2-ylamino)-2,3-dihydrobenzo[b][1,4]dioxin-2-yl)(piperidin-1-yl)methanone] |
| > 1000 | CN1C(C)(C)CC(Nc2nc(Nc3ccc4c(c3)OCC(C(=O)N3CCOCC3)O4)ncc2F)CC1(C)C (stereo not shown) [II-2, (6-(4-(1,2,2,6,6-pentamethylpiperidin-4-ylamino)-5-fluoropyrimidin-2-ylamino)-2,3-dihydrobenzo[b][1,4]dioxin-2-yl)(morpholino)methanone] |
| > 1000 | CC1(C)CC(Nc2nc(Nc3ccc4c(c3)OCC(C(=O)N3CCCCC3)O4)ncc2F)CC(C)(C)N1 (stereo not shown) [II-3, (6-(4-(2,2,6,6-tetramethylpiperidin-4-ylamino)-5-fluoropyrimidin-2-ylamino)-2,3-dihydrobenzo[b][1,4]dioxin-2-yl)(piperidin-1-yl)methanone] |
| > 1000 | CC1(C)CC(Nc2nc(Nc3ccc4c(c3)OCC(C(=O)N3CCOCC3)O4)ncc2F)CC(C)(C)N1 (stereo not shown) [II-4, (6-(4-(2,2,6,6-tetramethylpiperidin-4-ylamino)-5-fluoropyrimidin-2-ylamino)-2,3-dihydrobenzo[b][1,4]dioxin-2-yl)(morpholino)methanone] |
| > 1000 | CN1C(C)(C)CC(Nc2nc(Nc3ccc4c(c3)OCC(CN3CCCCC3)O4)ncc2F)CC1(C)C (stereo not shown) [II-5, 5-fluoro-N2-(2,3-dihydro-2-((piperidin-1-yl)methyl)benzo[b][1,4]dioxin-6-yl)-N4-(1,2,2,6,6-pentamethylpiperidin-4-yl)pyrimidine-2,4-diamine] |
| > 1000 | CN1C(C)(C)CC(Nc2nc(Nc3ccc4c(c3)OCC(CN3CCOCC3)O4)ncc2F)CC1(C)C (stereo not shown) [II-6, 5-fluoro-N2-(2,3-dihydro-2-(morpholinomethyl)benzo[b][1,4]dioxin-6-yl)-N4-(1,2,2,6,6-pentamethylpiperidin-4-yl)pyrimidine-2,4-diamine] |
| > 1000 | CC1(C)CC(Nc2nc(Nc3ccc4c(c3)OCC(CN3CCCCC3)O4)ncc2F)CC(C)(C)N1 (stereo not shown) [II-7, 5-fluoro-N2-(2,3-dihydro-2-((piperidin-1-yl)methyl)benzo[b][1,4]dioxin-6-yl)-N4-(2,2,6,6-tetramethylpiperidin-4-yl)pyrimidine-2,4-diamine] |
| > 1000 | CC1(C)CC(Nc2nc(Nc3ccc4c(c3)OCC(CN3CCOCC3)O4)ncc2F)CC(C)(C)N1 (stereo not shown) [II-8, 5-fluoro-N2-(2,3-dihydro-2-(morpholinomethyl)benzo[b][1,4]dioxin-6-yl)-N4-(2,2,6,6-tetramethylpiperidin-4-yl)pyrimidine-2,4-diamine] |
| < 250 | CC1(C)CC(Nc2nc(Nc3ccc4c(c3)OC(C)(C)C(=O)N4CCF)ncc2F)CC(C)(C)N1 [II-9, N2-[2,2-Dimethyl-4-(2-fluoroethyl)-1,4-benzoxazin-3-one-7-yl]-5-fluoro-N4-(2,2,6,6-tetramethylpiperidin-4-yl)-2,4-pyrimidinediamine] |
| 250 to 500 | Cc1nnnn1-c1cc(Nc2ncc(F)c(NC3CC(C)(C)N(C)C(C)(C)C3)n2)ccc1OC1CCN(C(C)C)CC1 [III-1, 5-fluoro-N2-(4-(1-isopropylpiperidin-4-yloxy)-3-(5-methyl-1H-tetrazol-1-yl)phenyl)-N4-(1,2,2,6,6-pentamethylpiperidin-4-yl)pyrimidine-2,4-diamine] |
| > 1000 | Cc1nnnn1-c1cc(Nc2ncc(F)c(NC3CC(C)(C)NC(C)(C)C3)n2)ccc1OC1CCN(C(C)C)CC1 [III-2, 5-fluoro-N2-(4-(1-isopropylpiperidin-4-yloxy)-3-(5-methyl-1H-tetrazol-1-yl)phenyl)-N4-(2,2,6,6-tetramethylpiperidin-4-yl)pyrimidine-2,4-diamine] |
| > 1000 | CC(C)N1CCC(Oc2ccc(Nc3ncc(F)c(NC4CC(C)(C)N(CC(F)(F)F)C(C)(C)C4)n3)cc2OC(F)F)CC1 [III-3, N2-(3-(Difluoromethoxy)-4-(1-isopropylpiperidin-4-yloxy)phenyl)-5-fluoro-N4-(2,2,6,6-tetramethyl-1-(2,2,2-trifluoroethyl)piperidin-4-yl)pyrimidine-2,4-diamine] |
| > 1000 | CC(=O)N1C(C)(C)CC(Nc2nc(Nc3ccc(OC4CCN(C(C)C)CC4)c(OC(F)F)c3)ncc2F)CC1(C)C [III-4, 1-(4-(2-(3-(Difluoromethoxy)-4-(1-isopropylpiperidin-4-yloxy)phenylamino)-5-fluoropyrimidin-4-ylamino)-2,2,6,6-tetramethylpiperidin-1-yl)ethanone] |
| 250 to 500 | CC1CC(Nc2nc(Nc3cccc(-n4cnnn4)c3)ncc2F)CC(C)N1C1CC1 (stereo not shown) [III-5, N^2-(3-(1H-tetrazol-1-yl)phenyl)-N4-(1-cyclopropyl-2,6-dimethylpiperidin-4-yl)-5-fluoropyrimidine-2,4-diamine] |

Same assay, conditions: human primary T cells stimulated with anti-CD3 + anti-CD28, 24 hours

| IC50 [nM] | Structure (SMILES) |
| --- | --- |
| > 1000 | CC1(C)CC(Nc2nc(Nc3ccc4c(c3)OCCO4)ncc2F)CC(C)(C)N1 [II-10, N2-(3,4-Ethylenedioxy)phenyl-5-fluoro-N4-(2,2,6,6-tetramethylpiperidin-4-yl)-2,4-pyrimidinediamine] |
